# “And” between values parts separate entries of the source, which are not always exact repeats. Equal values may be shown once. Square brackets hold non-standard residues; d marks the D form. Peptide text beside a SMILES is read from it.
# Assays:
# [1] = Stability (half-life) in human serum, UPLC-MS; settings: human serum (10 and 50% in PBS; FIG. 5: 50%), 0.1 mM peptide
# Experimental: The experiment was performed as described by Tugyi et al. (Proc Natl Acad Sci USA, 2005, 413-418). The remaining intact peptide was quantified by UPLC-MS.
# [2] = tested on: Adriamycin-induced nephropathy in rats; experiment: Adriamycin-induced nephropathy; assay type: in vivo, rat; settings: 2 mg/kg IV Day 0
# Text: Adriamycin treatment induces glomerular disease in rat and mice mimicking human focal segmental and glomerular sclerosis (FSGS). In this model, tubular and interstitial inflammatory lesions occur during the disease course, partly due to heavy proteinuria. In the absence of therapy, kidney disease progresses to terminal renal failure within eight weeks. Podocyte injury is one of the initial steps in the sequences leading to glomerulosclerosis. The aim of the study was to investigate whether a JNK inhibitor could prevent the development of renal lesions and the renal failure.
# 30 male Sprague-Dawley rats (Charles River) were used in this study (divided into 3 groups of ten rats). Nephropathy was induced by a single intravenous injection of Adriamycin […] on Day 0. The JNK inhibitor of SEQ ID NO: 172 (2 mg/kg; in NaCl 0.9%) or vehicle was administered intravenously into the tail vein on Day 0. The administration volume was 0.2 ml.
# Retroorbital blood was collected at Days 7, 14, 28, 42 and 56 from 4 rats per group. Serum creatinine concentrations, blood urea and protidemia were measured using appropriate kits from Advia Chemistry 1650 (Bayer Healthcare AG, Leverkusen, Germany).
# Two rats per group were sacrificed on Days 7, 14, 28, 42 and 56 after anesthesia. After animal sacrifice, both kidneys were collected. For histopathological examination fixed tissue specimens were dehydrated in graded alcohol solutions, cleared in toluene, and embedded in paraffin. Sections (4 µm) were stained with periodic acid-Schiff (PAS), and Masson's trichrome staining was performed to detect collagen deposition. Glomerular and tubulointerstitial sclerosis were quantified under microscope.
# human whole blood = experiment: PHA-L-induced cytokine release in human whole blood, 3 days; assay type: cell-based; settings: 1, 3, 10 μM, PHA-L 5 μg/mL
# Experimental: FIG. 22 JNK inhibition and TNF-α release in human whole blood. The JNK inhibitor with SEQ ID NO: 172 was added at three different concentrations, namely 1, 3 and 10 μM 1 h before whole blood stimulation with PHA-L (5 μg/mL) for 3 days.
# FIG. 23 JNK inhibition and IL-2 release in human whole blood. The JNK inhibitor with SEQ ID NO: 172 was added at three different concentrations, namely 1, 3 and 10 μM 1 h before whole blood stimulation with PHA-L (5 μg/mL) for 3 days.
# Whole blood from human healthy volunteers was collected using a venipuncture connected to a pre-labeled vacuum tube containing sodium citrate. Tubes are gently mixed by inversion 7-8 times; and are then kept at RT until stimulation. 350 μl of RPMI+P/S were added into 1.2 ml-96-well plate. 10 times concentrated of SEQ ID NO: 172 was prepared in RPMI+P/S (50 μl per well). 50 μl was added into 1.2 ml-96 well plates. 50 μl of whole blood was then added in each well where either medium alone or JNK inhibitor has been previously added. Whole blood was incubated at 37° C., 5% CO2 for 60 min. 50 μl/well of ligands diluted in RPMI+P/S was prepared, corresponding to the final dilution 10 times concentrated. After 60 min of incubation, ligand was added; wells were then mixed by pipetting up and down the blood. […] Cytokine were then measured using standard Elisa kits. Results are expressed as pg/ml of supernatant of the measured cytokine.
# [3] = tested on: rat model of kidney bilateral ischemia reperfusion; experiment: Kidney bilateral ischemia reperfusion, tubular histological scores, Sprague-Dawley rats; assay type: in vivo
# Experimental: Male Sprague-Dawley rats weighing 200-250 g at delivery were used (Charles River Laboratories, L'Arbresle, France). Animals were delivered to the laboratory at least 5 days before the experiments during which time they were acclimatized to laboratory conditions. This study included 3 groups of 11-12 rats each, as follow:
# The protocol of warm renal ischemia was similar to that previously described (Pechman K R et al., 2009). Briefly, under general anesthesia (pentobarbital; 60 mg/kg, i.p. and atropine; 1 mg/kg, i.p.), both renal pedicles were isolated and clamped for 40 minutes using atraumatic clamps. After this time, clamps were released to start reperfusion. Animals were maintained at 37° C. using a thermo-regulated system (TCAT-2LV Controller, Physitemp Instruments, Clifton, N.J., USA) during the surgery. All the animals were sacrificed 24 hours after the release of both vascular clamps (reperfusion). Sham-operated animals underwent the same surgical procedure without clamping of the kidney vessels.
# XG-104 or vehicle (0.9% NaCl) were administered into the tail vein (i.v.) at the dose of 2 mg/kg twenty minutes after the release of the second vascular clamp. Intravenous administrations into the tail vein were performed using the volume of 1 mL/kg.
# After sacrifice, kidneys were removed, cleaned from all connective tissue and capsule and weighted on an electronic balance (VWR, France). One kidney was transferred in formalin solution 10% (Sigma Aldrich, France) for at least 24 h and then transferred in ethanol 70% for further histological analysis performed by Histalim (Montpellier, France). Right and left kidneys were randomly chosen. Kidney samples were fixed in 10% formalin during 72 hours, transferred into 70% ethanol, then embedded in paraffin blocks by Histalim (Montpellier, France). One longitudinal section (3 to 5 µm) was made per block. Kidney sections of paraffin embedded tissue were stained by hematoxylin and eosin (H&E). All the slides were digitalized at ×20 magnitude using Nanozoomer 2.0 HT from Hamamatsu (Hamamatsu, Japan). Each tissue section was examined histologically in a blinded manner to determine if tubular changes were present. The severity of each finding was then graded as follows:
# Tubular damage score consisted of either degeneration/necrosis, tubular epithelial vacuolation, regeneration (basophil tubules), and tubular cast: […]
# hJNK2 = hJNK2 (Homo sapiens, UniProt P45984); experiment: hJNK2 | IC50; settings: read-out: hJNK2 | IC50
# hJNK2, sequence (P45984 whole entry, looked up, the tested form may be a part): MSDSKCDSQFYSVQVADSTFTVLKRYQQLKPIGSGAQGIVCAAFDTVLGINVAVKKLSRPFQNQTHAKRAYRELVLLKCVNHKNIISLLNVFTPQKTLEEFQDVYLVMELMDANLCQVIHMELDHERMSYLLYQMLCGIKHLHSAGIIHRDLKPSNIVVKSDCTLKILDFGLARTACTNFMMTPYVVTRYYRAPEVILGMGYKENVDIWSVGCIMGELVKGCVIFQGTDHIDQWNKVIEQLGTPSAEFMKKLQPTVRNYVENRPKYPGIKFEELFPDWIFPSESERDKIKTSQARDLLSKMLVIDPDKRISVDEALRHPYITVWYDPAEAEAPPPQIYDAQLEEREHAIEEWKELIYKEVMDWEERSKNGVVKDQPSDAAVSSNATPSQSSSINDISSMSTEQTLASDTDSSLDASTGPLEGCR
# Procedure, shortened: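 JNK inhibitors tested as fusion proteins of a JNK-inhibitory (poly)peptide and a transporter sequence; IC50 reported in the nM range with SEM and number of experiments.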
# [4] = 2 mg/kg i.v. after reperfusion, 24 hours
# [5] = 2 mg/kg i.v. after reperfusion, 24 hours, listed as XG-104
compound,measurement,setting,value
"CC(C)C[C@H](NC(=O)[C@H](CC(N)=O)NC(=O)[C@H](CC(C)C)NC(=O)[C@@H](NC(=O)[C@@H](C)NC(=O)[C@@H]1CCCN1C(=O)[C@H](CCCNC(=N)N)NC(=O)[C@@H](CCCCN)NC(=O)[C@@H]1CCCN1C(=O)[C@H](CCCNC(=N)N)NC(=O)[C@@H](CCCNC(=N)N)NC(=O)[C@H](CCCNC(=N)N)NC(=O)[C@H](CCCNC(=N)N)NC(=O)[C@H](CCC(N)=O)NC(=O)[C@@H](CCCNC(=N)N)NC(=O)[C@H](CCCNC(=N)N)NC(=O)[C@H](CCCCN)NC(=O)[C@H](CCCCN)NC(=O)[C@H](N)CCCNC(=N)N)[C@@H](C)O)C(=O)N[C@H](Cc1ccccc1)C(N)=O [SEQ ID NO: 172, rKKRrQRRrRPkRPaTLNLf] (H-[dR]KKR[dR]QRR[dR]RP[dK]RP[dA]TLNL[dF]-NH2; N-terminus assumed)",time until completely degraded,[1],14 days
same,"kidney histopathology (PAS, Masson trichrome)",[2]; Day 8,relatively normal appearance
same,"kidney histopathology (PAS, Masson trichrome)",[2]; Day 56,few focal and segmental glomerulosclerosis and tubulointerstitial fibrosis
same,urea serum level,[2]; throughout the course of the disease,below 10 mmol/l
same,PHA-L-induced IL-2 release,human whole blood,did reduce the PHA-L-induced IL-2 release in a dose-dependent manner
same,PHA-L-induced TNF-α release,human whole blood,did reduce the PHA-L-induced TNF-α release in a dose-dependent manner
same,animals with degeneration/necrosis score of 1,[3]; [4],1/11
same,total tubular score (mean),[3]; [4],6.00±1.26
same,animals with degeneration/necrosis score of 4,[3]; [5],1/12 and 1/11
same,mean basophilic tubule score,[3]; [5],1.33±0.65 and 1.73±0.47
same,mean tubular epithelial degeneration/necrosis score,[3]; [5],2.67±0.65 and 2.18±0.75
same,tubular damages,"[3]; 2 mg/kg i.v., vs IR/Vehicle",significant beneficial effects on tubular damages
same,IC50,hJNK2,54.7 nM

# Reference: patent US11331364B2, “Use for JNK inhibitor molecules for treatment of various diseases” (Xigen Inflammation Ltd., priority 2014, dated 2022)
